Key:
Assay type in all cases: in vivo
[1] = system: Patio variety tomato seedlings; experiment: Tomato epinasty test, volatile gas treatment; details: Gas 10 ppm; ethylene 10 ppm v/v; scale of 0 to 10, 10 complete protection, 0 no protection
Method: The test procedure is designed to determine the ability of an compound according to the present invention to block the epinastic growth response induced by ethylene in tomato plants when the compound is administered either as a volatile gas or as a component of a spray solution. Treatment chambers are of an appropriate size for the test plants and are airtight. Each is fitted with a reusable septum to be used for injection of ethylene. Test plants are Patio variety tomato seedlings planted two plants per three inch square plastic pot. Volatile gas treatment entails placing two pots of Patio var. tomatoes into a polystyrene 4.8 L volume treatment chamber along with one-half (upper or lower section) of a 50×9 mm plastic Petri dish containing a Gelman filter pad. The appropriate amount of experimental compound, dissolved in 1.0 ml acetone, is pipetted onto the filter pad and the chamber immediately sealed. Four hours later ethylene gas equal to 10 ppm v/v final concentration is injected into the sealed chamber. Sixteen hours later the chambers are opened in an exhaust hood, allowed to air and the plants scored visually for the degree of protection against ethylene-induced epinasty conferred by the experimental compound when compared to ethylene treated and untreated controls on a scale of 0 to 10. A rating of 10 means complete protection. A rating of 0 means no protection from the effects of ethylene.

banana [2] = experiment: Minimum concentration protecting bananas from 333 μl/l ethylene (compound on filter paper in 3-liter jar)
Method: To obtain the minimum concentration that protected bananas from 333 μl/l of ethylene, compounds according to the present invention were applied to bananas according to the method described herein. A known amount of the active compound was placed on filter paper in a 3-liter jar to facilitate evaporation into the vapor state. The compounds were applied in an ethyl ether solution because the amount used was potentially too small to apply unless they were in solution. The amount of ether (about 10 μl in 3 l) was without effect when applied alone on a banana contained in a 3-liter jar. The jar was sealed and the banana was removed after 4 hours of exposure. At the end of exposure, the banana was treated with 333 μl/l of ethylene in a 3-liter jar for 12-15 hours. It was then observed for ripening. The minimum concentration is the concentration that protected the bananas from 333 μl/l of ethylene. Ten microliters/liter of ethylene is usually considered to be a saturating amount. This procedure was repeated for 8-, 24- and 48-hour treatment times to determine the minimum concentration of active compounds of the present invention needed to provide protection from 333 μl/l of ethylene for a given treatment time.

banana [3] = experiment: Time of protection (insensitivity to ethylene) of bananas, compounds of the invention; details: saturating amount (at least 10 times minimum) for 24 hours, daily challenge with 333 μl/l ethylene 12-15 hours
Method: To obtain the time of protection, bananas were exposed to a saturating amount of the compound for 24 hours (this was done as described in Example 1 above and at least 10 times the minimum protection amount was used). After exposure, bananas were removed from the jars and each day individual bananas were exposed to 333 μl/l of ethylene for 12-15 hours. The day the bananas responded to ethylene was recorded as the protection time.

[4] = system: Patio variety tomato seedlings; experiment: Tomato epinasty test, spray application treatment; details: applied as a spray; ethylene 10 ppm v/v; scale of 0 to 10, 10 complete protection
Method: The test procedure is designed to determine the ability of an compound according to the present invention to block the epinastic growth response induced by ethylene in tomato plants when the compound is administered either as a volatile gas or as a component of a spray solution.
Treatment chambers are of an appropriate size for the test plants and are airtight. Each is fitted with a reusable septum to be used for injection of ethylene.
Test plants are Patio variety tomato seedlings planted two plants per three inch square plastic pot.
Spray application treatment entails using a DeVilbiss atomizer to completely cover all foliage and stems of two pots of Patio var. tomato plants with the appropriate amount of experimental compound dissolved in 10% acetone/90% water with 0.05% Silwett L-77 surfactant. Plants are air-dried in a drying hood for four hours then transferred to a 4.8 L polystyrene chamber which is sealed.
Ethylene gas equal to 10 ppm v/v final concentration is injected into the sealed chamber. Sixteen hours later the chambers are opened in an exhaust hood, allowed to air and the plants scored visually for the degree of protection against ethylene-induced epinasty conferred by the experimental compound when compared to ethylene treated and untreated controls on a scale of 0 to 10. A rating of 10 means complete protection. […]

banana [5] = experiment: Minimum concentration protecting bananas from 333 μl/l ethylene (short-chain cyclopropenes injected as gas); details: 24 hours exposure to compound as gas in 3-liter jar, then 333 μl/l ethylene 12-15 hours, observed for ripening
Method: To obtain the minimum concentration that protected bananas from 333 μl/l of ethylene, compounds described in U.S. Pat. No. 5,518,988 to Sisler et al. were applied to bananas according to the methods setforth herein. A known amount of an active compound was injected as a gas into a 3-liter jar containing a banana. The jar was sealed and the banana was removed after 24 hours. At the end of exposure, the banana was treated with 333 pill of ethylene in a 3-liter jar for 12-15 hours. It was then observed for ripening. The minimum concentration is the minimum concentration that protected the banana from 333 μl/l of ethylene. Ten microliters/liter of ethylene is usually considered to be a saturating amount.

banana [6] = experiment: Time of protection (insensitivity to ethylene) of bananas, short-chain cyclopropenes; details: saturating amount (at least 10 times minimum) for 24 hours, daily challenge with 333 μl/l ethylene 12-15 hours
Method: To obtain the time of protection, bananas were exposed to a saturating amount of the compound for 24 hours (this was done as above and at least 10 times the minimum protection amount was used). After exposure, bananas were removed from the jars and each day individual bananas were exposed to 333 pill of ethylene for 12-15 hours. The day the bananas responded to ethylene was recorded as the protection time.

[7] = Table 2 (values equal the 24-hour treatment of Table 1)
[8] = treatment time 4 hours, then 333 μl/l ethylene 12-15 hours
[9] = treatment time 8 hours, then 333 μl/l ethylene 12-15 hours
[10] = treatment time 24 hours, then 333 μl/l ethylene 12-15 hours
[11] = treatment time 48 hours, then 333 μl/l ethylene 12-15 hours

CCCCCCC1=CC1 [Compound 1, 1-Hexyl-cyclopropene]
Protection against ethylene-induced epinasty, rating [1]: 10
Minimum Concentration (banana [2]; [7]): 0.4 nl/l
Minimum Concentration (banana [2]; [8]): 12.0 nl/l
Minimum Concentration (banana [2]; [9]): 0.8 nl/l
Minimum Concentration (banana [2]; [10]): 0.4 nl/l
Minimum Concentration (banana [2]; [11]): 0.3 nl/l
Time of Insensitivity (banana [3]): 20 days

CCCCCCCCC1=CC1 [Compound 23, 1-octylcyclopropene]
Protection against ethylene-induced epinasty, rating [1]: 10
Minimum Concentration (banana [2]; [7]): 0.3 nl/l
Minimum Concentration (banana [2]; [8]): 0.8 nl/l
Minimum Concentration (banana [2]; [9]): 0.45 nl/l
Minimum Concentration (banana [2]; [10]): 0.3 nl/l
Minimum Concentration (banana [2]; [11]): 0.25 nl/l
Time of Insensitivity (banana [3]): 25 days

CCCCC1=CCC1 [1-butylcyclobutene, reference compound]
Protection against ethylene-induced epinasty, rating [4]: 5

CCCCCC1=CCC1 [1-pentylcyclobutene]
Protection against ethylene-induced epinasty, rating [4]: 10

cyclopropene [cyclopropene (CP)]
Minimum Concentration (banana [5]): 0.7 nl/l
Time of Insensitivity (banana [6]): 12 days

Reference: patent publication US6365549B2, “Methods of blocking an ethylene response in plants using cyclopropene derivatives” (North Carolina State University, priority 1999, dated 2002)
